Test results from patent US8350027B2, “Dual-acting pyrazole antihypertensive agents” (Theravance, Inc., priority 2009, dated 2013).

Experiments:
[1] = target: T1, human AT1 receptor (Homo sapiens, UniProt P30556); test: AT1 radioligand binding assay (displacement of [Eu]AngII); conditions: membranes of CHO-K1 cells expressing cloned human AT1 receptor; values given as lower bounds; read-out: AT1 pKi (converted)
T1 construct: expressed in transfected cells; host or cells: CHO-K1
T1 sequence (P30556 1-359): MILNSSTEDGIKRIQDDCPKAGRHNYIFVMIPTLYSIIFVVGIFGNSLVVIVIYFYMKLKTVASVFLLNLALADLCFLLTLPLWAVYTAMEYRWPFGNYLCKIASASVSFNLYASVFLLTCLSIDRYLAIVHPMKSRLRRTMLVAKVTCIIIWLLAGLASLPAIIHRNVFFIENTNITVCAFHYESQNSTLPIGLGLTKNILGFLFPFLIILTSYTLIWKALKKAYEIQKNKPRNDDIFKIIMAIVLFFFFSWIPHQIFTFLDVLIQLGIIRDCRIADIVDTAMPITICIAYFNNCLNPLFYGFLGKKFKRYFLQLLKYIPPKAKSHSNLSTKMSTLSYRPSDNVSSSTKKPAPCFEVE
Outline: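 Membranes from CHO-K1 cells stably expressing cloned human AT1, 0.2 μg protein, in 50 mM Tris/HCl pH 7.5, 5 mM MgCl2, 0.025% BSA. Compounds displaced [Eu]AngII over 120 min in the dark at room temperature or 37° C; filter-bound TRF read. Nonspecific binding with 10 μM angiotensin II; IC50 converted to Ki via Cheng-Prusoff, reported as pKi.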

[2] = target: T2, NEP enzyme (Homo sapiens, UniProt P08473); test: NEP enzyme inhibition assay (fluorogenic peptide substrate); type: biochemical; conditions: values given as lower bounds; * = prodrugs, may not exhibit NEP activity in an in vitro assay; read-out: NEP pIC50 (converted)
T2 construct: purchased R&D Systems, Minneapolis, Minn; 1182-ZN
T2 sequence (P08473 52-750 limits assumed): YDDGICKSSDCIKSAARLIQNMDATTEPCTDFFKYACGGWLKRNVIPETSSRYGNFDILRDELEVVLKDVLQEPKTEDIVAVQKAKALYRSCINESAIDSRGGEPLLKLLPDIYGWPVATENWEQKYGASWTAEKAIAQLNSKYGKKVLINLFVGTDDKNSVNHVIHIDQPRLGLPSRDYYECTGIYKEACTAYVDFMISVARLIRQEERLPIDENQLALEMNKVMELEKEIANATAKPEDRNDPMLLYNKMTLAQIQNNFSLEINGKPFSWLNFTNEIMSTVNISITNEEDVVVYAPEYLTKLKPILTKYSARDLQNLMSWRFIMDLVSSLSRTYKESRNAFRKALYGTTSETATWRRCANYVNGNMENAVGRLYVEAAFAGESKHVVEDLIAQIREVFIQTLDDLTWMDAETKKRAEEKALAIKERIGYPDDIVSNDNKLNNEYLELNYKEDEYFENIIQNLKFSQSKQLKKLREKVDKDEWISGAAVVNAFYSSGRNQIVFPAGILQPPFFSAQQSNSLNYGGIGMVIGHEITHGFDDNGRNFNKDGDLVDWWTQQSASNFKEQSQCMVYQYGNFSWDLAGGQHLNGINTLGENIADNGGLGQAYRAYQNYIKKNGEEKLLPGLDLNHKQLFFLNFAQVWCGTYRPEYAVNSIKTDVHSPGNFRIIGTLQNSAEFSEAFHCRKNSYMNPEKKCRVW
Outline: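 Recombinant human NEP was run with Mca-BK2 (10 μM) at room temperature in Tris buffer with 1 μM Zn. Compounds (10 μM–20 pM, 12 points) were pre-equilibrated 10 min, then reacted 20 min and acid-stopped. Fluorescence ex 320/em 405 nm, one-site competition fit gives pIC50. Thiol compounds may be pre-treated with 400 μM TCEP.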

**Q.** For `CCCc1cc(C(=O)N[C@@H](CS)Cc2ccccc2)nn1Cc1ccc(-c2ccccc2S(=O)(=O)NC(C)=O)nc1` [Example 14-3, 1-[6-(2-Acetylsulfamoyl-phenyl)pyridin-3-ylmethyl]-5-propyl-1H-pyrazole-3-carboxylic acid ((R)-1-benzyl-2-mercaptoethyl)amide], which Ki [1] is on record?
**A.** ≤ 100 nM

**Q.** What about the IC50 [2] of the same compound?
**A.** ≤ 100 nM

**Q.** What does the source list for `CCCc1cc(C(=O)N[C@H](Cc2ccccc2)[C@@H](O)C(=O)O)nn1Cc1ccc(-c2ccccc2S(=O)(=O)NC(C)=O)cn1` [Example 15-3, (2R,3R)-3-({1-[5-(2-Acetylsulfamoylphenyl)pyridin-2-ylmethyl]-5-propyl-1H-pyrazole-3-carbonyl}amino)-2-hydroxy-4-phenylbutyric acid]?
**A.** Ki [1]: ≤ 100 nM; IC50 [2]: ≤ 100 nM

**Q.** Which results are given for `CCCc1cc(C(=O)N[C@@H](CC(=O)O)CC(C)C)nn1Cc1ccc(-c2ccccc2-c2nnn[nH]2)nc1` [Example 14-7, (R)-5-Methyl-3-[(5-propyl-1-{6-[2-(1H-tetrazol-5-yl)-phenyl]-pyridin-3-ylmethyl}-1H-pyrazole-3-carbonyl)-amino]hexanoic acid]?
**A.** Ki [1]: ≤ 10 nM; IC50 [2]: ≤ 100 nM

**Q.** `CCCc1cc(C(=O)N[C@H](Cc2ccccc2Cl)[C@@H](O)C(=O)O)nn1Cc1ccc(-c2ccccc2S(=O)(=O)NC(C)=O)cc1` [Example 6-9, (2R,3R)-3-{[1-(2′-Acetylsulfamoylbiphenyl-4-ylmethyl)-5-propyl-1H-pyrazole-3-carbonyl]-amino}-4-(2-chlorophenyl)-2-hydroxy-butyric acid] was tested. Which Ki [1] did it give?
**A.** ≤ 10 nM

**Q.** What about the IC50 [2] of the same compound?
**A.** ≤ 100 nM

**Q.** `CCCc1cc(C(=O)N[C@H](Cc2ccccc2)[C@@H](O)C(=O)O)nn1Cc1ccc(-c2ccccc2S(=O)(=O)NC(=O)N2CCOCC2)cc1` [Example 7-22, (2R,3R)-2-Hydroxy-3-[(1-{2′-[(morpholine-4-carbonyl)sulfamoyl]biphenyl-4-ylmethyl}-5-propyl-1H-pyrazole-3-carbonyl)amino]-4-phenylbutyric acid] was tested. Which Ki [1] did it give?
**A.** ≤ 100 nM

**Q.** What about the IC50 [2] of the same compound?
**A.** ≤ 100 nM

**Q.** How did the Ki [1] turn out when `CCCc1cc(C(=O)N[C@H](Cc2ccccc2)[C@@H](O)C(=O)O)nn1Cc1cnc(-c2ccccc2S(=O)(=O)NC(C)=O)cn1` [Example 17-5, (2R,3R)-3-({1-[5-(2-Acetylsulfamoylphenyl)pyrazin-2-ylmethyl]-5-propyl-1H-pyrazole-3-carbonyl}amino)-2-hydroxy-4-phenylbutyric acid] was run?
**A.** ≤ 100 nM

**Q.** And the IC50 [2]?
**A.** ≤ 100 nM

**Q.** What does the source list for `CCCc1cc(C(=O)N[C@@H](CC(=O)NO)Cc2ccccc2)nn1Cc1ccc(-c2ccccc2S(=O)(=O)NC(C)=O)c(F)c1` [Example 6-17, 1-(2′-Acetylsulfamoyl-2-fluorobiphenyl-4-ylmethyl)-5-propyl-1H-pyrazole-3-carboxylic acid ((R)-1-hydroxycarbamoylmethyl-2-phenylethyl)amide]?
**A.** Ki [1]: ≤ 10 nM; IC50 [2]: ≤ 100 nM

**Q.** How did the Ki [1] turn out when `CCCc1cc(C(=O)N[C@@H](CC(=O)O)Cc2ccccc2C(F)(F)F)nn1Cc1ccc(-c2ccccc2-c2nnn[nH]2)cc1` [Example 3-36, (R)-3-({5-Propyl-1-[2′-(1H-tetrazol-5-yl)-biphenyl-4-ylmethyl]-1H-pyrazole-3-carbonyl}amino)-4-(2-trifluoromethylphenyl)butyric acid] was run?
**A.** ≤ 100 nM

**Q.** And the IC50 [2]?
**A.** ≤ 1000 nM

**Q.** What does the source list for `CCOc1cc(C(=O)N[C@@H](CC(=O)O)Cc2ccccc2)nn1Cc1ccc(-c2ccccc2S(=O)(=O)NC(C)=O)cc1F` [Example 6-24, (R)-3-{[1-(2′-Acetylsulfamoyl-3-fluorobiphenyl-4-ylmethyl)-5-ethoxy-1H-pyrazole-3-carbonyl]amino}-4-phenylbutyric acid]?
**A.** Ki [1]: ≤ 10 nM; IC50 [2]: ≤ 10000 nM

**Q.** What does the source list for `CCCc1cc(C(=O)N[C@@H](CC(=O)O)Cc2ccccc2)nn1Cc1ccc(-c2ccccc2S(=O)(=O)NC(C)=O)nc1` [Example 14-15, (R)-3-({1-[6-(2-Acetylsulfamoylphenyl)-pyridin-3-ylmethyl]-5-propyl-1H-pyrazole-3-carbonyl}-amino)-4-phenylbutyric acid]?
**A.** Ki [1]: ≤ 10 nM; IC50 [2]: ≤ 1000 nM

**Q.** How did the Ki [1] turn out when `CCCc1cc(C(=O)N[C@@H](CC(=O)O)Cc2ccccc2)nn1Cc1ccc(-c2ccccc2-c2nnn[nH]2)cc1F` [Example 3-30, (R)-3-({1-[3-Fluoro-2′-(1H-tetrazol-5-yl)biphenyl-4-ylmethyl]-5-propyl-1H-pyrazole-3-carbonyl}amino)-4-phenylbutyric acid] was run?
**A.** ≤ 10 nM

**Q.** And the IC50 [2]?
**A.** ≤ 10000 nM

**Q.** With `CCCc1cc(C(=O)N[C@@H](CC(=O)O)Cc2ccccc2Cl)nn1Cc1ccc(-c2ccccc2-c2nnn[nH]2)cc1F` [Example 3-20, (R)-4-(2-chlorophenyl)-3-(1-((3-fluoro-2′-(1H-tetrazol-5-yl)biphenyl-4-yl)methyl)-5-propyl-1H-pyrazole-3-carboxamido)butanoic acid] as the compound, how does the Ki [1] read?
**A.** ≤ 100 nM

**Q.** What about the IC50 [2] of the same compound?
**A.** ≤ 1000 nM

**Q.** With `CCOc1cc(C(=O)N[C@@H](CS)Cc2ccccc2)nn1Cc1ccc(-c2ccccc2-c2nnn[nH]2)cc1` [Example 3-4, 5-Ethoxy-1-[2′-(1H-tetrazol-5-yl)biphenyl-4-ylmethyl]-1H-pyrazole-3-carboxylic acid ((R)-1-benzyl-2-mercaptoethyl)amide] as the compound, how does the Ki [1] read?
**A.** ≤ 10 nM

**Q.** What about the IC50 [2] of the same compound?
**A.** ≤ 100 nM

**Q.** Which results are given for `CCCc1cc(C(=O)N[C@@H](Cc2ccccc2)CN(O)C=O)nn1Cc1ccc(-c2ccccc2S(=O)(=O)NC(C)=O)cc1` [Example 6-22, 1-(2′-Acetylsulfamoylbiphenyl-4-ylmethyl)-5-propyl-1H-pyrazole-3-carboxylic acid [(S)-1-benzyl-2-(formylhydroxyamino)ethyl]amide]?
**A.** Ki [1]: ≤ 10 nM; IC50 [2]: ≤ 100 nM

**Q.** What does the source list for `CCCc1cc(C(=O)N[C@@H](CC(=O)O)Cc2ccccc2)nn1Cc1ccc(-c2ccccc2S(=O)(=O)NC(C)=O)cc1` [Example 6-28, (R)-3-{[1-(2′-Acetylsulfamoylbiphenyl-4-ylmethyl)-5-propyl-1H-pyrazole-3-carbonyl]amino}-4-phenylbutyric acid]?
**A.** Ki [1]: ≤ 10 nM; IC50 [2]: ≤ 10000 nM

**Q.** For `CCCc1cc(C(=O)N[C@@H](CC(=O)O)Cc2ccccc2Cl)nn1Cc1cnc(-c2ccccc2S(=O)(=O)NC(C)=O)cn1` [Example 17-6, (R)-3-({1-[5-(2-Acetylsulfamoyl-phenyl)-pyrazin-2-ylmethyl]-5-propyl-1H-pyrazole-3-carbonyl}amino)-4-(2-chloro-phenyl)butyric acid], which Ki [1] is on record?
**A.** ≤ 10 nM

**Q.** What about the IC50 [2] of the same compound?
**A.** ≤ 1000 nM

**Q.** Which results are given for `CCOc1cc(C(=O)N[C@@H](CC(=O)O)Cc2ccccc2)nn1Cc1ccc(-c2ccccc2-c2nnn[nH]2)cc1F` [Example 3-31, (R)-3-({5-Ethoxy-1-[3-fluoro-2′-(1H-tetrazol-5-yl)biphenyl-4-ylmethyl]-1H-pyrazole-3-carbonyl}amino)-4-phenylbutyric acid]?
**A.** Ki [1]: ≤ 100 nM; IC50 [2]: ≤ 10000 nM
